Consider four molecules from patent US8481551B2, “Gyrase and topoisomerase IV inhibitors” (Vertex Pharmaceuticals Incorporated, priority 2011, dated 2013).

Structures can show the parent of a compound that is named as a salt.

By MIC is commonly meant the lowest concentration found to suppress growth. Low values mean inhibition by little substance, high ones a need for much substance. In general, MIC90 refers to the lowest concentration that inhibits either 90% of growth or 90% of the strains tested, depending on the study. The low end stands for greater potency, the high end for weaker potency. Usually IC50 stands for the concentration at which inhibition is half-maximal. Lower therefore signals inhibition by little substance. The Ki is the dissociation constant of the complex between target and ligand, obtained from inhibition or displacement.

The test system of series [1] is M. tuberculosis. Kind of series: MIC determination procedure for Mycobacterium species (Protocol 4). The series is classed as cell-based.
Series [2] relates to β-haemolytic streptococci (Groups A, B, C and G). Kind of series: Gyrase MIC, microdilution broth method (Protocol 1). The series is classed as cell-based. Conditions: 28 isolates tested. For orientation: In broth dilution the organism is exposed to a series of concentrations in liquid medium.
Series [3] in a line: Oral range finding toxicity and toxicokinetic study in male cynomolgus monkeys. The series is classed as in vivo, Cynomolgus monkeys (Macaca Fascicularis). An excerpt:
Cynomolgus monkeys (Macaca Fascicularis) were obtained from Primus Bio-Resources Inc. of PinCourt, Quebec, Canada. Cynomolgus monkeys were chosen because they are a non-rodent species that is commonly used for nonclinical toxicity evaluations.
Eight (2 naive and 6 non-naïve) males were used in the study. The animals were young adults and weighed between 2 to 4 kg at the onset of dosing.
The first day of dosing was designated as Day 1 of the study. The actual volume administered to each animal was calculated and adjusted based on the most recent body weight of each animal.
Cage-side clinical signs (ill health, behavioral changes etc.) were recorded at least once daily during the study.
Body weights were recorded for all animals prior to group assignment and on Days 1 (prior to dosing), 3 and 7 as well as terminally prior to necropsy (fasted).
Electrocardiograms (bipolar limb leads I, II and III, and augmented unipolar leads aVR, aVL and aVF) were obtained for all monkeys once during the pre-treatment period and again on Day 7 (post-dosing).
The tracings were assessed for gross changes indicative of cardiac electrical dysfunction. The potential presence of abnormalities involving heart rate (lead II), sinus and atrioventricular rhythm or conductivity were determined. Heart rate, PR interval, QRS duration, QT and QTc intervals values were measured.
A series of 7 blood samples (approximately 0.5 mL each) were collected from each monkey on Days 1 and 7 at the following time points: predose, 30 minutes and 2, 3, 6, 12 and 24 hours post-dose. […] Tubes were placed on wet ice until ready for processing. […]
The following parameters were measured on blood samples collected into EDTA anticoagulant: red blood cell count, mean corpuscular hemoglobin (calculated), hematocrit (calculated), mean corpuscular volume, hemoglobin, morphology of cells, white blood cell count, platelet count, white blood cell differential (absolute), reticulocyte (absolute and percentage) and mean corpuscular hemoglobin concentration (calculated).
Activated partial thromboplastin time and prothrombin time were measured on blood samples collected into citrate anticoagulant.
The following parameters were measured on blood samples collected into tubes containing clotting activator: a/g ratio (calculated), creatinine, alanine aminotransferase, globulin (calculated), albumin, glucose, alkaline phosphatase, phosphorus (inorganic), aspartate aminotransferase, potassium, bilirubin (total), sodium, calcium, total protein, chloride, triglycerides, cholesterol (total), urea, gamma glutamyltransferase and sorbitol dehydrogenase.
The following parameters were measured on urine samples: bilirubin, protein, blood, sediment microscopy, color and appearance, specific gravity, glucose, urobilinogen, ketones, volume and pH. […]

Series [4] deals with Stenotrophomonas maltophilia. Kind of series: Gyrase MIC against Gram negatives, microdilution broth method (Protocol 2). Type of series: cell-based.
Series [5] has as its system M. kansasii. Kind of series: MIC determination procedure for Mycobacterium species (Protocol 4). Type of series: cell-based.
Series [6] concerns M. abscessus. The series is described as above. Type of series: cell-based. As to conditions: Mycobacteroides abscessus.
Series [7] can be described thus: Conversion of Compound W to Compound 23 in liver S9 fractions. As to conditions: hepatic and intestinal S9 fractions from rats, dogs, monkeys and humans. Type of series: in vitro ADME. The protocol: The incubations were done for 0, 5, 10, 15, 30, 45 or 60 minutes. The formation of Compound 23 was quantified by LC/MS-MS and data were fitted to the Michaelis Menten equation.

The target of series [8] is S. aureus TopoIV enzyme (Staphylococcus aureus, UniProt P0C1S7). Kind of series: DNA Topo IV ATPase assay. The series is classed as biochemical. As to conditions: 64 nM enzyme, 30° C., Morrison Equation fit.
In series [9] the target is S. aureus DNA gyrase (Staphylococcus aureus, UniProt P0A0K8). Kind of series: DNA gyrase ATPase assay. As to conditions: 90 nM enzyme, 0.9 mM ATP, 30° C.
Sequence of S. aureus DNA gyrase (P20831 whole entry): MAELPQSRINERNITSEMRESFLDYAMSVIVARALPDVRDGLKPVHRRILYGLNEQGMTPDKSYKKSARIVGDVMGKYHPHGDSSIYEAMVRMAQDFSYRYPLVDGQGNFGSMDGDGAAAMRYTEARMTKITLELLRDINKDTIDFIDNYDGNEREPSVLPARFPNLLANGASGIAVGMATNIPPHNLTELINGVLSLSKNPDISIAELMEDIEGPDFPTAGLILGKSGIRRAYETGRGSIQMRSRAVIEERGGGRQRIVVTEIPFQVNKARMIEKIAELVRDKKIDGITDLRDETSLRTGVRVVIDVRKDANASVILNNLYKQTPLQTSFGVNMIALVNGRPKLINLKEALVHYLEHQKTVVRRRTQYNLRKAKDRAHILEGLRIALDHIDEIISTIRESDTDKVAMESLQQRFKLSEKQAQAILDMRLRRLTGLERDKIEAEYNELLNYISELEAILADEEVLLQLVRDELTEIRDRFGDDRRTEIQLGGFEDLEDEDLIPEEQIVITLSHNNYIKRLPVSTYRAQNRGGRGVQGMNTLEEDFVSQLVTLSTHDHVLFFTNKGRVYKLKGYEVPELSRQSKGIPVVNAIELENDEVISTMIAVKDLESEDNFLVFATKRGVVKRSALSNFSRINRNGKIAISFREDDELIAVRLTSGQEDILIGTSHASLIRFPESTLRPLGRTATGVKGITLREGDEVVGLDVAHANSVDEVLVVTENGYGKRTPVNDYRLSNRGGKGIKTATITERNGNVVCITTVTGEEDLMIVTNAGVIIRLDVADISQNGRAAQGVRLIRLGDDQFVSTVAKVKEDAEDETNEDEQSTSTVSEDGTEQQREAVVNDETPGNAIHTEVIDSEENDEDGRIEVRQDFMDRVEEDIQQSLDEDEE
Sequence of S. aureus DNA gyrase (P0A0K8 whole entry): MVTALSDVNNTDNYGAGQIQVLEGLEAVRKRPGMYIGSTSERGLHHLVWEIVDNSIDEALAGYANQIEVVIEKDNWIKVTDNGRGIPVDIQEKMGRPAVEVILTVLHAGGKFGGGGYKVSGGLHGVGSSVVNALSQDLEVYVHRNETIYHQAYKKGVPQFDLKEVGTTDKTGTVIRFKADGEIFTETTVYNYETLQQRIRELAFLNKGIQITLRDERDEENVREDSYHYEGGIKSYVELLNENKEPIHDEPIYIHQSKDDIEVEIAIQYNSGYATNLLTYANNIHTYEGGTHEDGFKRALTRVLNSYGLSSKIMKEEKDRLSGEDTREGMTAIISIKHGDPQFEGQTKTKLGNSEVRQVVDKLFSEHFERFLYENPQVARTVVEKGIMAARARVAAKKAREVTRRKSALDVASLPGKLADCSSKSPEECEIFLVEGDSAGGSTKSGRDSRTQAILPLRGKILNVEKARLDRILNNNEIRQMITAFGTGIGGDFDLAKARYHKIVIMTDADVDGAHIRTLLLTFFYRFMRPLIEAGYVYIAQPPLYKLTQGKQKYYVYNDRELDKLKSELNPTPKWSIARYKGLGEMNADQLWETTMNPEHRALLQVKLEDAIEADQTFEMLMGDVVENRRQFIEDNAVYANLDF

Sequence of S. aureus TopoIV enzyme (P0C1S7 whole entry): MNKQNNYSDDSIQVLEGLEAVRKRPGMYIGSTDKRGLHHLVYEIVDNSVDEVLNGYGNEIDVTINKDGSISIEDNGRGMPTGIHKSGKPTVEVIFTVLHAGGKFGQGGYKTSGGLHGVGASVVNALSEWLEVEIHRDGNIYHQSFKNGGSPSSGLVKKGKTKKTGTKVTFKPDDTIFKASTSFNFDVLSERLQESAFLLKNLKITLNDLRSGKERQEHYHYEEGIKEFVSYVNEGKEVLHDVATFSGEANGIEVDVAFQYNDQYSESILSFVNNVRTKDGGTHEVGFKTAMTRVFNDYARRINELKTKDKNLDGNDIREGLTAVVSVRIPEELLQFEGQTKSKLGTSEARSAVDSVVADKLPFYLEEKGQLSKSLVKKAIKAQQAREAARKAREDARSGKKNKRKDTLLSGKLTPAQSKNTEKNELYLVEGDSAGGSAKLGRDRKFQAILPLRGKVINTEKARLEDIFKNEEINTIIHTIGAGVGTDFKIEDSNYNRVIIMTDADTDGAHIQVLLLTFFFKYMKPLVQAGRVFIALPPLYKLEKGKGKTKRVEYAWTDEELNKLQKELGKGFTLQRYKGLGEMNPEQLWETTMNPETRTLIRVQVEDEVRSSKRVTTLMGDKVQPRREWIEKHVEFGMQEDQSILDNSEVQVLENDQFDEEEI
Sequence of S. aureus TopoIV enzyme (P0C1U9 whole entry partner): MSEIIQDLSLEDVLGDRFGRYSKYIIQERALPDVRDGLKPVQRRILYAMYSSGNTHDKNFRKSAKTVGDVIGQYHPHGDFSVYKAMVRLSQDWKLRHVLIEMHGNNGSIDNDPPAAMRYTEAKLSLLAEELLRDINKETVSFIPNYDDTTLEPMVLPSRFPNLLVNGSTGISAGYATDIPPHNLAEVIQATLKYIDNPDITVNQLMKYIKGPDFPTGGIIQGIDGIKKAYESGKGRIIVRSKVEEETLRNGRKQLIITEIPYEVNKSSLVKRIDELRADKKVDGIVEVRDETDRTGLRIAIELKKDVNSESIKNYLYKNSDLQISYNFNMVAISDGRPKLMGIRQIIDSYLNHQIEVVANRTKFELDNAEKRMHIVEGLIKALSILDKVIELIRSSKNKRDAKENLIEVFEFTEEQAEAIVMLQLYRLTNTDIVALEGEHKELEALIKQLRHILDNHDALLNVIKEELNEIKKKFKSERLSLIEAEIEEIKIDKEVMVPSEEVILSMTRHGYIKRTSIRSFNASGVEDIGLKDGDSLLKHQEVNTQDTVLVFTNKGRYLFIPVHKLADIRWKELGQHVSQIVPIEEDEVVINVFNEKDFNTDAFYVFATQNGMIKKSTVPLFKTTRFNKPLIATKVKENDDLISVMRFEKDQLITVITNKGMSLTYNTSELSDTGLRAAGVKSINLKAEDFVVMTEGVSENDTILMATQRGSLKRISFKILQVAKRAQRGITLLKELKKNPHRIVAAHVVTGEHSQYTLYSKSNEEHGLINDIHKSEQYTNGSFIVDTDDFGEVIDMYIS

For `CCNC(=O)Nc1nc2cc(-c3cnc(C(C)(C)O)nc3)cc([C@H]3CCCO3)c2[nH]1` [Compound 13, methanesulfonic acid salt of 1-ethyl-3-[5-[2-(1-hydroxy-1-methyl-ethyl)pyrimidin-5-yl]-7-[(2R)-tetrahydrofuran-2-yl]-1H-benzimidazol-2-yl]urea], the MIC in series [1] (ATCC 25618 / H37Rv, M. tuberculosis H37Rv ATCC 25618) amounted to 0.37 µg/mL; in [1] (ATCC 35801 / ERDMAN, M. tuberculosis Erdman ATCC 35801) it was 0.25 µg/mL. In addition, the MIC90 in [2] worked out at 0.25 µg/mL. The “MIC Range” value in series [2] lay within 0.06 to 0.5 µg/mL.
For the molecule `CCNC(=O)Nc1nc2cc(-c3cnc(C(C)(C)O)nc3)c(F)c([C@H]3CCCO3)c2[nH]1` [Compound 23, 1-ethyl-3-[6-fluoro-5-[2-(1-hydroxy-1-methyl-ethyl)pyrimidin-5-yl]-7-[(2R)-tetrahydrofuran-2-yl]-1H-benzimidazol-2-yl]urea], in series [3] (doses up to 200 mg/kg/day), the “clinical signs, body weights, electrocardiography, clinical pathology, organ weights” value was “no clinical signs, or changes in body weights, electrocardiography parameters, clinical pathology parameters, or organ weights” and the “macroscopic or microscopic findings” value was “no macroscopic or microscopic findings”. In series [3] (male Cynomolgus monkeys, oral gavage once per day for 7 days), the “no observed effect level (NOEL)” value is recorded as 200 mg/kg/day. Further, the “exposures for different dosage levels” value in [3] (male Cynomolgus monkeys, toxicokinetics) is on record as “dose related”.
On to `CCNC(=O)Nc1nc2cc(-c3cnc(C(C)(C)O)nc3)c(F)c([C@H]3CCCO3)c2[nH]1` [Compound 23A, methanesulfonic acid salt of 1-ethyl-3-[6-fluoro-5-[2-(1-hydroxy-1-methyl-ethyl)pyrimidin-5-yl]-7-[(2R)-tetrahydrofuran-2-yl]-1H-benzimidazol-2-yl]urea], for which the MIC in [4] (ATCCBAA84, Stenotrophomonas maltophilia ATCC BAA-84) is more than 8 µg/mL; in [4] (Stenotrophomonas maltophilia ATCC13637) it was more than 8 µg/mL; in series [5] (M. kansasii 303) it was 0.03 µg/mL; in series [5] (M. kansasii 379), less than 0.015 µg/mL; in series [6] (M. abscessus BB1), 2 µg/mL; in series [6] (M. abscessus BB2), 1 µg/mL. In addition, the MIC in series [6] (M. abscessus BB3) turned out to be 0.5 µg/mL; in [6] (M. abscessus BB4), 2 µg/mL; in [6] (M. abscessus BB5), 0.5 µg/mL; in series [6] (M. abscessus BB6), 0.5 µg/mL; in [6] (M. abscessus BB8), 0.5 µg/mL; in [6] (M. abscessus LT 949), 1 µg/mL. For the same molecule, the minimum inhibitory concentration (MIC) in series [6] (M. abscessus MC 5812) is 1 µg/mL; in [6] (M. abscessus MC 5901), 1 µg/mL; in series [6] (M. abscessus MC 5908 (second listing, r109)), 1 µg/mL; in [6] (M. abscessus MC 5922), 0.25 µg/mL; in series [6] (M. abscessus MC 5931), 0.5 µg/mL; in series [6] (M. abscessus MC 5960), 0.5 µg/mL. Besides, the MIC in series [6] (M. abscessus MC 6005) was found to be 1 µg/mL; in series [6] (M. abscessus MC 6025) it was 0.75 µg/mL; in series [6] (M. abscessus MC 6111) it was 0.5 µg/mL; in [6] (M. abscessus MC 6136) it was 0.5 µg/mL; in series [6] (M. abscessus MC 6142), 0.5 µg/mL; in series [6] (M. abscessus MC 6153), 1 µg/mL.
With `CCNC(=O)Nc1nc2cc(-c3cnc(C(C)(C)OP(=O)([O-])[O-])nc3)c(F)c([C@H]3CCCO3)c2[nH]1.[Na+].[Na+]` [Compound W, disodium (R)-2-(5-(2-(3-ethylureido)-6-fluoro-7-(tetrahydrofuran-2-yl)-1H-benzo[d]imidazol-5-yl)pyrimidin-2-yl)propan-2-yl phosphate], the “conversion of Compound W to Compound 23” value in series [7] is “rapidly converts to Compound 23”. For the same molecule, in series [8], the IC50 came out at 150 nM and affinity was put at a Ki of 30 nM. The molecule further showed an IC50 in [9] of 54 nM.
